Patent US8383637B2, “2-amino-quinazoline derivatives useful as inhibitors of β-secretase (BACE)” (Jansssen Pharmaceutica N.V., priority 2004, dated 2013)
Where “and” joins values, the source holds several entries; their conditions need not be identical. Identical values can stand only once. Like-named read-outs stand apart in the source and are kept apart here.

What was measured:
[1] = biological target: T1, β-secretase(BACE) (Homo sapiens, UniProt P56817); test: BACE Assay-2 (FS1 substrate, IC50 and Ki); format: biochemical; details: procedure of Example 159, FS1 substrate; read-out: Ki μM (159)
T1 construct: purchased Panvera

[2] = biological target: T1, β-secretase(BACE); test: BACE FS1% Inhibition Assay; format: biochemical; details: FS1 substrate; for inhibition at 10 µM: 10 μM test compound, read-out: % Inhibition (FS) 10 μM
Method in brief: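 Percent inhibition at each tested concentration, referenced to enzyme-free blank and vehicle-only positive control. Reaction: compound and BACE (4 μg/mL working stock) mixed 20 min at room temperature before FS1 substrate (300 μg/mL working stock), then 1 h at room temperature.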

[3] = 0.3 μM test compound, read-out: % Inhibition (FS) 0.3 μM
[4] = 1 μM test compound, read-out: % Inhibition (FS) 1 μM
[5] = 3 μM test compound, read-out: % Inhibition (FS) 3 μM
[6] = 0.3 μM test compound, read-out: % Inhibition (FS)
[7] = 1 μM test compound, read-out: % Inhibition (FS)
[8] = 3 μM test compound, read-out: % Inhibition (FS)

T1 sequence (P56817 46-501): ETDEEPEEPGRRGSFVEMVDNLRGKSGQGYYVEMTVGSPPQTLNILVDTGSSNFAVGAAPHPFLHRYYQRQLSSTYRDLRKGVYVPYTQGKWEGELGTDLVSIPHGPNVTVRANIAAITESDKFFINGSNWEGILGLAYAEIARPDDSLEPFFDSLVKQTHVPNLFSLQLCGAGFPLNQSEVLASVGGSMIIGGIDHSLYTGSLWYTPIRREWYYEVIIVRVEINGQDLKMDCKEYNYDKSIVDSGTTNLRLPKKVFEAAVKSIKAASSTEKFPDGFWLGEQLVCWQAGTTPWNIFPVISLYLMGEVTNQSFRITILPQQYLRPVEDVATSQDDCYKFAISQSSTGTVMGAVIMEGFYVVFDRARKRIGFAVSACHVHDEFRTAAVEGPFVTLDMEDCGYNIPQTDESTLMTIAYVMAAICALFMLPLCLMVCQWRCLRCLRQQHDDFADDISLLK

Row | Compound | Ki [1] | inhibition at 0.3 µM [2, 3] | inhibition at 1 µM [2, 4] | inhibition at 3 µM [2, 5] | further results
1 | CN(C(=O)CCC(C1CCCCC1)N1Cc2cc(Oc3ccccc3)ccc2N=C1N)C1CCC(O)CC1 (centres unmarked) [Compound 712] | 0.1 µM |  |  |  | inhibition at 0.3 µM [2, 6]: 39%; inhibition at 1 µM [2, 7]: 104%; inhibition at 3 µM [2, 8]: 134%
2 | COc1cccc(Oc2ccc3c(c2)CN(Cc2cccc(C(=O)N(C)C4CCCCC4)c2)C(N)=N3)c1 [Compound 292] | 1 µM | < 30% | 49% | 83% | 
3 | CN(C(=O)CC[C@@H]([C@H]1CC[C@@H](O)CC1)N1Cc2cc(Oc3ccccc3)ccc2N=C1N)C1CCCCC1 [Compound 731, 4-(2-Amino-6-phenoxy-4H-quinazolin-3-yl)-N-cyclohexyl-4-(cis-4-hydroxy-cyclohexyl)-N-methyl-butyramide] | 0.087 µM |  |  |  | inhibition at 0.3 µM [2, 6]: 56%; inhibition at 1 µM [2, 7]: 114%; inhibition at 3 µM [2, 8]: 132%
4 | CC(C)C(CC(=O)N(C)C1CCCCC1)N1Cc2cc(Oc3ccccc3)ccc2N=C1N (centres unmarked) [Compound 201] | 0.4 µM | < 30% | < 30% | 66% | 
5 | CN(C(=O)CCC(C1CCOCC1)N1Cc2cc(Oc3ccccc3)ccc2N=C1N)C1CCCCC1 (centres unmarked) [Compound 619] | 0.011 µM | 119% | 118% | 125% | 
6 | COC(=O)[C@H]1CC[C@@H](N(CCO)C(=O)CC[C@@H](C2CCCCC2)N2Cc3cc(Oc4ccccc4)ccc3N=C2N)CC1 [Compound 762] | 0.111 µM |  |  |  | inhibition at 0.3 µM [2, 6]: 74%; inhibition at 1 µM [2, 7]: 102%; inhibition at 3 µM [2, 8]: 113%
7 | NC1=Nc2ccc(Oc3ccccc3)cc2CN1[C@@H](CCC(=O)N[C@@H](COCc1ccccc1)C(=O)O)C1CCOCC1 [Compound 782] | 0.015 µM |  |  |  | inhibition at 0.3 µM [2, 6]: 104%; inhibition at 1 µM [2, 7]: 107%; inhibition at 3 µM [2, 8]: 113%
8 | CN(C(=O)CCCC(c1ccccc1)N1Cc2cc(Oc3ccccc3)ccc2N=C1N)C1CCCCC1 (centres unmarked) [Compound 152] | 0.3 µM |  |  | 85% | inhibition at 10 µM [2]: 107%
9 | CCC(c1cccc(C(=O)N(C2CCCCC2)C2CCCCC2)c1)N1Cc2cc(-c3ccccc3OC)ccc2N=C1N (centres unmarked) [Compound 418] | 0.035 µM | 54% | 89% | 119% | 
10 | CCCN1Cc2cc(Oc3cccc(NCc4ccc(C)cc4)c3)ccc2N=C1N [Compound 729] | 0.33 µM |  |  |  | inhibition at 0.3 µM [2, 6]: 33%; inhibition at 1 µM [2, 7]: 61%; inhibition at 3 µM [2, 8]: 100%
11 | CN(C(=O)CCC(C1CCC(O)CC1)N1Cc2cc(Oc3ccccc3)ccc2N=C1N)C1CCCCC1 (centres unmarked) [Compound 632, 4-(2-Amino-6-phenoxy-4H-quinazolin-3-yl)-N-cyclohexyl-4-(4-hydroxy-cyclohexyl)-N-methyl-butyramide] | 0.0084 µM | 115% | 118% | 117% | 
12 | CN(C(=O)CC[C@@H](C1CCCCC1)N1Cc2cc(Oc3ccccc3)ccc2N=C1N)C1CCOCC1 [Compound 638] | 0.23 µM | 74% | 101% | 116% | 
13 | NC1=Nc2ccc(Oc3ccccc3)cc2CN1[C@@H](CCC(=O)N[C@H](CO)C(=O)O)C1CCOCC1 [Compound 773, 2-[4-(2-Amino-6-phenoxy-4H-quinazolin-3-yl)-4S-(tetrahydro-pyran-4-yl)-butyrylamino]-3R-hydroxy-propionic acid] | 0.028 µM |  |  |  | inhibition at 0.3 µM [2, 6]: 102%; inhibition at 1 µM [2, 7]: 111%; inhibition at 3 µM [2, 8]: 119%
14 | COC(=O)[C@H](COCc1ccccc1)NC(=O)CC[C@@H](C1CCOCC1)N1Cc2cc(Oc3ccccc3)ccc2N=C1N [Compound 785] | 0.198 µM |  |  |  | inhibition at 0.3 µM [2, 6]: 71%; inhibition at 1 µM [2, 7]: 91%; inhibition at 3 µM [2, 8]: 107%
15 | CC(C)(C)OC[C@@H](NC(=O)CC[C@@H](C1CCOCC1)N1Cc2cc(Oc3ccccc3)ccc2N=C1N)C(=O)O [Compound 774, 2-[4-(2-Amino-6-phenoxy-4H-quinazolin-3-yl)-4S-(tetrahydro-pyran-4-yl)-butyrylamino]-3R-tert-butoxy-propionic acid] | 0.003 µM |  |  |  | inhibition at 0.3 µM [2, 6]: 122%; inhibition at 1 µM [2, 7]: 120%; inhibition at 3 µM [2, 8]: 124%
16 | CN(C(=O)CC[C@@H](C1CCCCC1)N1Cc2cc(Oc3ccccc3)ccc2N=C1N)C1CCC(C(=O)O)CC1 (stereo partly drawn) [Compound 714, 4-{[4-(2-Amino-6-phenoxy-4H-quinazolin-3-yl)-4-(S)-cyclohexyl-butyryl]-methyl-amino}-cyclohexanecarboxylic acid] | 0.029 µM and 0.022 µM |  |  |  | % Inhibition (FS) ([2]; 0.3 μM test compound, 0.3 µM): 98%; inhibition at 0.3 µM [2, 6]: 100%; % Inhibition (FS) ([2]; 1 μM test compound, 1 µM): 129%; inhibition at 1 µM [2, 7]: 126%; % Inhibition (FS) ([2]; 3 μM test compound): 138%; inhibition at 3 µM [2, 8]: 138%
17 | CCC(c1cccc(C(=O)N(C2CCCCC2)C2CCCCC2)c1)N1Cc2cc(Oc3ccccc3)ccc2N=C1N (centres unmarked) [Compound 419] | 0.29 µM | 38% | 64% | 109% | 
18 | CN(C(=O)CC[C@@H](C1CCCCC1)N1Cc2c(cccc2Oc2ccccc2)N=C1N)C1CCCCC1 [Compound 753] | 0.656 µM |  |  |  | inhibition at 0.3 µM [2, 6]: 13%; inhibition at 1 µM [2, 7]: 47%; inhibition at 3 µM [2, 8]: 93%
19 | Cc1ccccc1Oc1ccc2c(c1)CN(Cc1cccc(C(=O)N(C)C3CCCCC3)c1)C(N)=N2 [Compound 293] | 1.1 µM | < 30% | 44% | 81% | 

Continued, in another order:

Row | Ki [1] | inhibition at 0.3 µM [2, 3] | inhibition at 1 µM [2, 4] | inhibition at 3 µM [2, 5] | Compound | further results
20 | 0.014 µM | 104% | 115% | 119% | NC1=Nc2ccc(-c3ccccc3F)cc2CN1CCC(=O)NC1C2CC3CC(C2)CC1C3 (centres unmarked) [Compound 635] | 
21 | 0.21 µM | 32% | 71% | 111% | CCCCCC(CCC(=O)NC1CCCCC1)N1Cc2cc(Oc3ccccc3)ccc2N=C1N (centres unmarked) [Compound 149] | 
22 | 0.18 µM | < 30% |  |  | NC1=Nc2ccc(-c3ccccc3)cc2CN1CCNC(=O)CC1CCCC1 [Compound 578] | % Inhibition (FS) 0.3 μM ([2]; 0.3 μM test compound, 0.3 µM): 31%
23 | 0.076 µM | 75% | 106% | 119% | COc1ccccc1-c1ccc2c(c1)CN(CCC(=O)NC1CCCCC1)C(N)=N2 [Compound 610] | 
24 | 0.56 µM | < 30% | 80% | 102% | CN(C(=O)CCCN1Cc2cc(Oc3ccccc3)ccc2N=C1N)C1CCCCC1 [Compound 177] | 
25 | 0.14 µM | 55% | 77% | 118% | COc1cccc(F)c1-c1ccc2c(c1)CN(CCNC(=O)C1CCCCC1)C(N)=N2 [Compound 545] | 
26 | 0.041 µM | 83% | 106% | 125% | Cc1ccccc1-c1ccc2c(c1)CN(CCNC(=O)C1CCCCC1)C(N)=N2 [Compound 537] | 
27 | 0.33 µM | < 30% | 61% | 92% | CC(=O)Nc1ccccc1-c1ccc2c(c1)CN(Cc1cccc(C(=O)N(C)C3CCCCC3)c1)C(N)=N2 [Compound 328] | 
28 | 0.37 µM |  |  | 70% | CCCS(=O)(=O)NCCN1Cc2cc(Oc3ccccc3)ccc2N=C1N [Compound 134] | inhibition at 10 µM [2]: 104%
29 | 0.23 µM | < 30% | 60% | 98% | CN(CCCN1Cc2cc(Oc3ccccc3)ccc2N=C1N)C1CCCCC1 [Compound 428, 3-[3-(Cyclohexyl-methyl-amino)-propyl]-6-phenoxy-3,4-dihydro-quinazolin-2-ylamine] | 
30 | 0.4 µM | < 30% | 50% | 94% | CN(C(=O)c1ccc(CN2Cc3cc(Oc4ccccc4)ccc3N=C2N)o1)C1CCCCC1 [Compound 424, 5-(2-Amino-6-phenoxy-4H-quinazolin-3-ylmethyl)-furan-2-carboxylic acid cyclohexyl-methyl-amide] | 
31 | 0.068 µM | 74% | 103% | 118% | CN(C(=O)c1cccc(CN2Cc3cc(-c4ccccc4F)ccc3N=C2N)c1)C1CCCCC1 [Compound 334] | 
32 | 0.43 µM |  |  |  | CN(CCc1ccccc1)C(=O)CC[C@@H](C1CCCCC1)N1Cc2cc(-c3ccccc3F)ccc2N=C1N [Compound 727] | % Inhibition (FS) ([2]; 0.3 μM test compound): 46%; % Inhibition (FS) ([2]; 1 μM test compound): 80%; % Inhibition (FS) ([2]; 3 μM test compound): 137%
33 | 0.42 µM | 51% | 87% | 110% | Cc1ccccc1-c1ccc2c(c1)CN(Cc1cccc(C(=O)N(C)C3CCCCC3)c1)C(N)=N2 [Compound 261] | 
34 | 0.86 µM | < 30% | 41% | 84% | CN(C(=O)c1cccc(CN2Cc3cc(Nc4ccccc4)ccc3N=C2N)c1)C1CCCCC1 [Compound 432] | 
35 | 0.044 µM | 103% | 118% | 126% | COc1ccccc1-c1ccc2c(c1)CN(CCC(=O)NC1C3CC4CC(C3)CC1C4)C(N)=N2 (centres unmarked) [Compound 556] | 
36 | 0.73 µM |  |  | 82% | CCCC(CCCC(=O)NC1CCCCCC1)N1Cc2cc(Oc3ccccc3)ccc2N=C1N (centres unmarked) [Compound 137] | inhibition at 10 µM [2]: 107%
